{"source": "patent US20070166710A1", "about": "“Methods for inhibiting adipogenesis and for treating type 2 diabetes” (priority 2003, published 2007)", "format_in_all_cases": "cell-based", "key": {"Pepck, G6pc and Igfbp-1": {"test_system": "Pepck, G6pc and Igfbp-1", "test": "mRNA levels of Foxa-2 target genes in primary hepatocytes (RT-PCR)", "conditions": "insulin alone (50 nM, 6 hours)", "protocol": "FIGS. 10a-d depict the effect of insulin on Foxa-2 activity. FIG. 10a is a bar graph depicting relative Foxa-2 activity in HepG2 cells transfected with an expression vector for Foxa-2 and […]-Luc (gray bars) or p6xCdx-TkLuc (black bars). Cells were treated with insulin alone or in the presence of Ly294002 or PD98059. FIG. 10b is a bar graph depicting relative Foxa-2 activity in HepG2 cells transfected with p6xCdx-TkLuc and treated with insulin alone or in the presence of Ly294002 or PD98059. […] FIG. 10d is a bar graph depicting relative Foxa-2 activity in HepG2 cells transfected with an expression vector for Foxa-1, Foxa-2, Akt or Akt[…] alone or in combination, using p6xCdx-TkLuc as reporter gene. In all experiments luciferase activity was normalized to β-Gal activity. […] Levels of mRNA were analyzed to determine whether inhibition of Foxa-2 target gene expression by insulin is controlled at a transcriptional or posttranscriptional level. The mRNA levels of Pepck, G6pc and Igfbp-1 in primary hepatocytes that were cultured either in the presence or absence of insulin, PI3-kinase or MAPKK1 inhibitors were measured."}, "Foxa-2 expression [1]": {"test_system": "Foxa-2 expression", "test": "Foxa-2 gene expression in stromal vascular cells (preadipocytes) of lean and obese mice", "conditions": "100 nM insulin, 24 and 60 hours", "protocol": "Gene expression was analyzed in a vasculo-stromal fraction (containing preadipocytes) of wildtype and ob/ob mice that were cultured in the absence (−) or presence of 100 nM insulin for 24 and 60 hours.\nStromal vascular cells from ob/ob mice are known to have increased cell replication in vitro and accumulate little triglycerides when cultured in differentiation medium containing insulin compared to lean control animals (Black et al (1995) J. Cell. Biochem 58:455-463). […] To test if the resistance to differentiation of obese preadipocytes may be mediated by Foxa-2, stromal vascular cells of lean and obese mice were isolated. cultured in the presence or absence of insulin, and gene expression of Foxa-2 and Pref-1 was measured. The mPNA levels were markedly higher in stromal vascular cells of ob/ob mice compared to lean littennates. […] However, Foxa-2 induction in ob/ob preadipocytes was profoundly higher compared to wildtype cells. Furthermore, Foxa-2 expression correlated with induction of Pref-1 gene expression."}, "Shp": {"test_system": "Shp", "test": "Shp expression in primary adipocytes of lean mice cultured with insulin", "conditions": "insulin 50 nM, 60 hours"}, "Foxa-2 expression [2]": {"test_system": "Foxa-2 expression", "test": "Foxa-2 expression in primary adipocytes from lean wildtype C57B6 mice, semiquantitative RT-PCR", "conditions": "insulin 100 nM, 60 hours", "protocol": "Total RNA was extracted from cells and EBs using Trizol following manufacturer's instructions (Life Technologies, Inc.). […] The cDNAs provided templates for polymerase chain reactions (PCRs) using specific primers at annealing temperatures ranging between 60 and 65° C. in the presence of dNTPs, [α^-32P]dCTP, and Taq DNA polymerase. […] Primary adipocytes were isolated as described by Rodbell (1964) J. Biol. Chem. 239:375-380. […] (1995) J. Cell. Biochem. 58:435-463. The reaction was stopped by spinning through dinonyl […] oil and the radioactivity quantified by scintillation counting. […] (1995) Am. J. Physiol. 268:[…]-[…]. Fatty acid de novo synthesis was analyzed by saponification of total lipids as described by […] et al. (1978) J. […] Incorporation into lipid glycerol was calculated by subtracting fatty acid radioactive label from total lipid radioactive label. Primary adipocytes were isolated from lean wildtype C57B6 mice and cultured in MEM medium (control) or in the presence of insulin (100 nM; 24 hours and 60 hours, respectively) or rosiglitazone (50 μM), WY14,643 (100 μM), dexametason (1 μM), leptin (100 ng/ml), TNF-α (5 ng/ml), adiponectin (500 ng/ml) and glucagons (100 nM) for 60 hours. Gene expression was measured by semiquantitative RT-PCR. Steady state mRNA levels of Hprt were used as a control and indicate that each lane contains similar amounts of mRNA. Reactions were also assayed in the absence of reverse transcriptase, showing that mRNA was not contaminated with genomic DNA."}, "Foxa-2": {"test_system": "Foxa-2", "test": "Immunofluorescence of subcellular distribution of endogenous Foxa-2 in HepG2 cells", "conditions": "insulin 50 nM", "protocol": "Immunofluorescence microscopy. Cells were fixed for 30 minutes at room temperature with 2% paraformaldehyde. For immunofluorescent detection of Foxa-1 or Foxa-2, fixed cells were incubated with respective polyclonal antibodies (1:100) (Ruiz i Altaba et al. (1993) Mech. Dev. 44: 91-108) overnight at 4° C. After washing, the cells were treated with anti rabbit IgG secondary antibody linked to Alexa Fluor 488 (Molecular Probes). Immunofluorescent staining was visualized using laser-scanning micrsocopy. To determine whether Akt-induced phosporylation of Foxa-2 has an effect on the subcellular distribution of this transcription factor, the following experiment was performed. HepG2 cells were grown to 60% confluency and endogenous Foxa-1 and Foxa-2 proteins were visualized by immunofluorescence after staining with anti Foxa-1 and Foxa-2 antibodies. Cells were either examined in the absence or presence of insulin (50 nM) and/or Ly294002 or PD98059, and after transfection with either Akt1 or Akt2 expression vectors (FIG. 5B). […] Treatment of cells with MAPKK1 inhibitor PD98059 had no effect on insulin stimulated nuclear exclusion of Foxa-2. The subcellular distribution of Foxa-2 in cells that were stimulated with insulin and expressed a dominant negative form of Akt (Akt[…]) were resistant to nuclear exclusion. […]"}}, "data": [{"substance": "insulin: Insulin was from Sigma; hormone used as stimulus", "values": [{"measurement": "mRNA levels of Pepck, G6pc and Igfbp-1", "setting": "Pepck, G6pc and Igfbp-1", "result": "significantly reduced"}, {"measurement": "expression of Foxa-2", "setting": "Foxa-2 expression [1]", "result": "markedly increased"}, {"measurement": "Expression of Shp", "setting": "Shp", "result": "induced"}, {"measurement": "Foxa-2 expression", "setting": "Foxa-2 expression [2]", "result": "strong induction"}, {"measurement": "subcellular localization of endogenous Foxa-2", "setting": "Foxa-2", "result": "efficiently excluded from the nucleus"}]}]}
